Consider one substance from patent publication US20250136650A1, “COMPOSITIONS AND METHODS FOR DNA BINDING AND TRANSCRIPTIONAL REGULATION” (THE UNIVERSITY OF CHICAGO, priority 2021, published 2025).

Assay [1] deals with HIF1α. Kind of assay: Western blot of HIF1α under hypoxia, MDA-MB-231. It counts as cell-based, human. As to conditions: MDA-MB-231, hypoxia. The procedure:
To study the effects of STR22 on hypoxia-induced gene transcription factor DNA binding and target gene expression, the induction of HIF1α and downstream HRE-target genes like VEGFA, PDK1, PGK1 and GLUT1 in response to acute hypoxia (e.g., 1% 02 for 6 hr) was validated.
Immunoblotting. Following indicated treatments, cells were first washed with ice-cold PBS. Whole-cell extracts were prepared by directly lysing cells with Laemmli sample buffer (Bio-rad, 1610747) supplemented with 2-Mercaptoethanol (Gibco, 21985023), protease inhibitor (Roche, 4693159001), PMSF (Roche, 10837091001) and phosphatase inhibitor (GB-450) at 4° C. Finally, protein samples were boiled at 95° C. for 5 mins. Western blotting was performed using antibodies for XBP1 (Biolegend, 9D11A43), HIF1α (Novus Biologicals, NB100-479), GAPDH (Santa Cruz Biotech, sc-32233) and α-tubulin (Invitrogen, MA1-19401) were used. Blots were imaged using Li—COR Odyssey Fc.

Assay [2] concerns MDA-MB-231 cells. Kind of assay: Boyden chamber invasion, MDA-MB-231. It counts as cell-based, human. As to conditions: MDA-MB-231, 20 μM, 24 hours, hypoxia. The procedure: Boyden Chamber Invasion Assay. Each Boyden chamber membrane (Fisher Scientific, 353097) was coated with a thin layer of Basement Membrane Extract (BME, 200 μl of 0.25 mg/ml stock; 50 μg total BME per membrane) and incubated at 37° C. for 1 hr. Cells were trypsinized, neutralized in 10% FBS DMEM media, and centrifuged at 500×g for 5 min followed by two rounds of PBS washes to remove remaining serum-containing media. Cells were then resuspended in serum-free media and diluted to the desired concentration for plating onto the Boyden chamber. 1×10^6 MDA-MB-231 cells in 300 μL serum-free media were plated on each Boyden chamber. 500 μL of 10% FBS DMEM media was placed in the lower well, acting as the chemoattractant. Serum-free media placed in the lower wells served as negative controls. Treated cells were plated in 20 μM of STR22. After a 24 hr incubation, the membranes were stained with Calcein AM (Fisher Scientific, 354217) for 1 hr at 37° C. to stain for live cells. The tops of the chambers were swabbed to remove remaining cells, and cells on the bottom of the chamber were dissociated from the membrane by incubating in cell dissociated buffer (R&D Systems, 3455-05-03) in a shaker at 37° C. for 1 hr. Calcein AM signal was measured in Perkin Elmer Victor X3 plate reader as a read-out of invaded cells.

With “XBP1-derived stapled dimer: RRK^KNR^AAQTARDRKKA#LSELEQQVVDLE linked to RRK^KNR^AAQTARDRKKARLSEL#QQVVDLE; FIG. 27 [STR22]”, the “induction of HIF1α protein” value in assay [1] was “did not affect the induction of HIF1α protein”. In addition, the cell invasion entry in assay [2] is reported as “significantly inhibited cell invasion”.
